According to ChEMBL document CHEMBL1151696 (Bioorg Med Chem, 2008):
The source made the active and inactive calls. No cut-off for these calls is given here.

Tests used:
[1] = tested on: Vesicular stomatitis virus; type: functional, organism-based
Punta Toro virus = type: functional, organism-based
Sindbis virus = type: functional, organism-based
Coxsackievirus B4 = type: functional, organism-based
[2] = tested on: Respiratory syncytial virus; type: functional, organism-based
Rattus norvegicus = species: Rattus norvegicus; assay: Inhibition of [3H]dopamine uptake in Wistar rat striatum synaptosomes at 100 uM by scintillation spectrometry; type: functional, subcellular; set-up: scale not given: the % may be the effect or the level left
[3] = tested on: Mammalian orthoreovirus 1; type: functional, organism-based
Human respirovirus 3 = type: functional, organism-based
Human alphaherpesvirus 1 = type: functional, organism-based
Feline coronavirus = type: functional, organism-based
[4] = biological target: T1, Glutamate NMDA receptor (Rattus norvegicus) (UniProt P35439+Q00959+Q00960+Q00961+Q62645+Q8VHN2+Q9R1M7); assay: (§1) Antagonist activity at NMDA receptor in cerebellar granule neurons assessed as inhibition of glutamate-induced increase in intracellular calcium concentration by fluorometric assay; type: functional, cell-based
[5] = biological target: T1, Glutamate NMDA receptor (Rattus norvegicus); assay: (§2) Antagonist activity at NMDA receptor in cerebellar granule neurons assessed as inhibition of NMDA-induced increase in intracellular calcium concentration by fluorometric assay; type: functional, cell-based
Human alphaherpesvirus 2 = type: functional, organism-based
Trypanosoma brucei [6] = assay: Trypanocidal activity against Trypanosoma brucei 427 blood stream after 48 hrs by hemocytometer; type: functional, organism-based; conditions: Trypanosoma brucei, 427, 48 h
Glutamate NMDA receptor [7] = assay: as §1; type: functional, cell-based
Glutamate NMDA receptor [8] = assay: as §2; type: functional, cell-based
Influenza A virus = assay: microbe, parasite or virus in culture; conditions: A/Puerto Rico/8/1934(H1N1), MDCK
Influenza B virus = type: functional, organism-based; conditions: B/Hong Kong/05/1972, MDCK
Influenza A virus H3N2 = type: functional, organism-based, Influenza A virus (A/Hong Kong/7/1987(H3N2)); conditions: MDCK
[9] = Cytotoxicity against MDCK cells by MTS assay; type: cell-based, Canis lupus familiaris; conditions: dog
Trypanosoma brucei [10] = assay: Trypanocidal activity against Trypanosoma brucei 427 blood stream at 5 ug/ml after 48 hrs by hemocytometer; type: functional, organism-based

| SMILES | Activity [1] | Activity (Punta Toro virus) | Activity (Sindbis virus) | Activity (Coxsackievirus B4) | Activity [2] | Activity (Rattus norvegicus) | Activity [3] | Activity (Human respirovirus 3) | Activity (Human alphaherpesvirus 1) | Activity (Feline coronavirus) | Activity (Human alphaherpesvirus 2) | IC50 (Glutamate NMDA receptor [7]) | IC50 (Glutamate NMDA receptor [8]) | further results |
| --- | --- | --- | --- | --- | --- | --- | --- | --- | --- | --- | --- | --- | --- | --- |
| CC12CC3CC1(C)CC3(N(Cc1ccccc1)Cc1ccccc1)C2 | inactive | inactive | inactive | inactive | inactive | 74.3% | inactive | inactive | inactive | inactive | inactive | – | – | Activity [4]: inactive; Activity [5]: inactive |
| CC(N)C12CC3(C)CC1CC3(C)C2 (centres undefined) | inactive | inactive | inactive | inactive | inactive | 72.2% | inactive | inactive | inactive | inactive | inactive | 94 µM | 37 µM | IC50 (Trypanosoma brucei [6]): 6.02 µM; IC90 (Trypanosoma brucei [6]): 9.48 µM |
| NC12CC3CC(CC1C3)C2 | – | – | – | – | – | 84.9% | – | – | – | – | – | > 500 µM | 92 µM | EC50 (Influenza A virus): 196 µM; Activity (Influenza B virus): inactive; EC50 (Influenza A virus H3N2): 26.5 µM; MCC [9]: > 575 µM |
| NC12CC3CC(CC(C3)C1)C2 [AMANTADINE] | – | – | – | – | – | 47.4% | – | – | – | – | – | – | – | EC50 (Influenza A virus): 77 µM; Activity (Influenza B virus): inactive; EC50 (Influenza A virus H3N2): 2.7 µM; IC50 (Trypanosoma brucei [6]): > 130 µM; MCC [9]: > 100 µM |
| NCC12CC3CC(CC1C3)C2 | inactive | inactive | inactive | inactive | inactive | 50.1% | inactive | inactive | inactive | inactive | inactive | > 200 µM | > 200 µM | EC50 (Influenza A virus): 36 µM; Activity (Influenza B virus): inactive; EC50 (Influenza A virus H3N2): 52 µM; MCC [9]: > 530 µM |
| CNC12CC3CC(CC1C3)C2 | inactive | inactive | inactive | inactive | inactive | 65.2% | inactive | inactive | inactive | inactive | inactive | 205 µM | 65 µM | – |
| CC12CC3CC1(C)CC3(CNCc1ccccc1)C2 | inactive | inactive | inactive | inactive | inactive | – | inactive | inactive | inactive | inactive | inactive | – | 47 µM | Activity (Trypanosoma brucei [10]): inactive; Activity [4]: inactive |
| CNCC12CC3(C)CC1CC3(C)C2 | inactive | inactive | inactive | inactive | inactive | 57.3% | inactive | inactive | inactive | inactive | inactive | > 200 µM | > 200 µM | – |
| CN(Cc1ccccc1)CC12CC3CC(CC1C3)C2 | inactive | inactive | inactive | inactive | inactive | 45% | inactive | inactive | inactive | inactive | inactive | > 500 µM | 178 µM | – |
| CC12CC3CC1(C)CC3(CN)C2 | inactive | inactive | inactive | inactive | inactive | 39.1% | inactive | inactive | inactive | inactive | inactive | > 500 µM | 128 µM | Activity (Trypanosoma brucei [10]): inactive |
| CN(C)C12CC3CC(CC1C3)C2 | inactive | inactive | inactive | inactive | inactive | 71.3% | inactive | inactive | inactive | inactive | inactive | > 500 µM | 173 µM | – |
| CN(Cc1ccccc1)CC12CC3(C)CC1CC3(C)C2 | inactive | inactive | inactive | inactive | inactive | – | inactive | inactive | inactive | inactive | inactive | – | 160 µM | Activity [4]: inactive |
| CC12CC3CC1(C)CC3(N)C2 | inactive | inactive | inactive | inactive | inactive | 54.8% | inactive | inactive | inactive | inactive | inactive | 274 µM | 23 µM | – |
| c1csc(CNC23CC4CC(CC2C4)C3)c1 | inactive | inactive | inactive | inactive | inactive | 47.7% | inactive | inactive | inactive | inactive | inactive | 384 µM | 17 µM | – |
| Fc1ccc(CNC23CC4CC(CC2C4)C3)cc1 | inactive | inactive | inactive | inactive | inactive | 81.1% | inactive | inactive | inactive | inactive | inactive | > 200 µM | > 200 µM | – |
| CN(C)C12CC3(C)CC1CC3(C)C2 | inactive | inactive | inactive | inactive | inactive | 75.2% | inactive | inactive | inactive | inactive | inactive | 185 µM | 153 µM | Activity (Trypanosoma brucei [10]): inactive |
| C1CCN(C23CC4CC(CC2C4)C3)CC1 | inactive | inactive | inactive | inactive | inactive | 68.5% | inactive | inactive | inactive | inactive | inactive | > 500 µM | 45 µM | – |
| CC(N)C12CC3CC(CC(C3)C1)C2 (centres undefined) [RIMANTADINE] | – | – | – | – | – | – | – | – | – | – | – | – | – | Activity (Influenza B virus): inactive; EC50 (Influenza A virus H3N2): 0.85 µM; IC90 (Trypanosoma brucei [6]): 14 µM; MCC [9]: > 100 µM |
